Measurements taken from patent publication US10251395B2, “Substituted furano-/thienocycloalkylamino-2-pyrimidine derivatives and use thereof for controlling undesired plant growth” (Bayer CropScience Aktiengesellschaft, priority 2015, dated 2019).

Key:
logP (HCOOH) = format: physicochemical; details: HCOOH (formic acid)
Text: Table 2 (physicochemical characterization of selected synthesis examples)

Ipomoea purpurea = experiment: Post-emergence herbicidal effect; format: in vivo; details: assessed visually after about 3 weeks vs untreated controls
Method in brief: (§1)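 Sow in sandy loam; grow in greenhouse 2–3 wk; spray one-leaf plants with WP or EC suspension/emulsion (600–800 L/ha water, 0.2% wetter); hold ~3 wk under optimal conditions; rate visually vs untreated (0–100%).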

Matricaria inodora [1] = experiment: Post-emergence herbicidal effect; format: in vivo; details: assessed visually after about 3 weeks vs untreated controls
Method in brief: as §1

Lolium multiflorum [2] = experiment: Post-emergence herbicidal effect; format: in vivo; details: assessed visually after about 3 weeks vs untreated controls
Method in brief: as §1

Echinochloa crus-galli [3] = experiment: Post-emergence herbicidal effect; format: in vivo; details: assessed visually after about 3 weeks vs untreated controls
Method in brief: as §1

Avena fatua [4] = experiment: Post-emergence herbicidal effect; format: in vivo; details: assessed visually after about 3 weeks vs untreated controls
Method in brief: as §1

Viola tricolor [5] = experiment: Post-emergence herbicidal effect; format: in vivo; details: assessed visually after about 3 weeks vs untreated controls
Method in brief: as §1

Polygonum convolvulus [6] = experiment: Post-emergence herbicidal effect; format: in vivo; details: assessed visually after about 3 weeks vs untreated controls
Method in brief: as §1

Stellaria media [7] = experiment: Post-emergence herbicidal effect; format: in vivo; details: assessed visually after about 3 weeks vs untreated controls
Method in brief: as §1

Abutilon theophrasti [8] = experiment: Post-emergence herbicidal effect; format: in vivo; details: assessed visually after about 3 weeks vs untreated controls
Method in brief: as §1

Setaria viridis [9] = experiment: Post-emergence herbicidal effect; format: in vivo; details: assessed visually after about 3 weeks vs untreated controls
Method in brief: as §1

Alopecurus myosuroides [10] = experiment: Post-emergence herbicidal effect; format: in vivo; details: assessed visually after about 3 weeks vs untreated controls
Method in brief: as §1

Amaranthus retroflexus [11] = experiment: Post-emergence herbicidal effect; format: in vivo; details: assessed visually after about 3 weeks vs untreated controls
Method in brief: as §1

Veronica persica [12] = experiment: Post-emergence herbicidal effect; format: in vivo; details: assessed visually after about 3 weeks vs untreated controls
Method in brief: as §1

Cyperus esculentus = experiment: Pre-emergence herbicidal effect; format: in vivo; details: scored visually after 3 weeks
Method in brief: (§2)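 Pre-emergence soil-surface application of compound as WP or EC in water (600 to 800 L/ha, 0.2% wetting agent) to freshly sown, soil-covered seeds in sandy loam. After 3 weeks under greenhouse conditions, percent activity rated by eye versus untreated plants, from 0% (no effect) to 100% (death).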

Matricaria inodora [13] = experiment: Pre-emergence herbicidal effect; format: in vivo; details: scored visually after 3 weeks
Method in brief: as §2

Lolium multiflorum [14] = experiment: Pre-emergence herbicidal effect; format: in vivo; details: scored visually after 3 weeks
Method in brief: as §2

Echinochloa crus-galli [15] = experiment: Pre-emergence herbicidal effect; format: in vivo; details: scored visually after 3 weeks
Method in brief: as §2

Avena fatua [16] = experiment: Pre-emergence herbicidal effect; format: in vivo; details: scored visually after 3 weeks
Method in brief: as §2

Viola tricolor [17] = experiment: Pre-emergence herbicidal effect; format: in vivo; details: scored visually after 3 weeks
Method in brief: as §2

Polygonum convolvulus [18] = experiment: Pre-emergence herbicidal effect; format: in vivo; details: scored visually after 3 weeks
Method in brief: as §2

Stellaria media [19] = experiment: Pre-emergence herbicidal effect; format: in vivo; details: scored visually after 3 weeks
Method in brief: as §2

Abutilon theophrasti [20] = experiment: Pre-emergence herbicidal effect; format: in vivo; details: scored visually after 3 weeks
Method in brief: as §2

Setaria viridis [21] = experiment: Pre-emergence herbicidal effect; format: in vivo; details: scored visually after 3 weeks
Method in brief: as §2

Alopecurus myosuroides [22] = experiment: Pre-emergence herbicidal effect; format: in vivo; details: scored visually after 3 weeks
Method in brief: as §2

Amaranthus retroflexus [23] = experiment: Pre-emergence herbicidal effect; format: in vivo; details: scored visually after 3 weeks
Method in brief: as §2

Veronica persica [24] = experiment: Pre-emergence herbicidal effect; format: in vivo; details: scored visually after 3 weeks
Method in brief: as §2

Cc1sc2c(c1C)C(Nc1ncc(C(F)(F)F)c(N)n1)CCC2 (centres unmarked) [compound 213, N2-(2,3-Dimethyl-4,5,6,7-tetrahydrobenzothiophen-4-yl)-5-(trifluoromethyl)pyrimidine-2,4-diamine]
80%: post-emergence efficacy LOLMU (Lolium multiflorum [2]; 80 g/ha) | post-emergence efficacy LOLMU (Lolium multiflorum [2]; 320 g/ha) | post-emergence efficacy AVEFA (Avena fatua [4]; 80 g/ha) | post-emergence efficacy AVEFA (Avena fatua [4]; 320 g/ha) | post-emergence efficacy STEME (Stellaria media [7]; 80 g/ha) | post-emergence efficacy ABUTH (Abutilon theophrasti [8]; 80 g/ha) | post-emergence efficacy AMARE (Amaranthus retroflexus [11]; 80 g/ha) | post-emergence efficacy VERPE (Veronica persica [12]; 80 g/ha) | CYPES pre-emergence efficacy (herbicidal activity) (Cyperus esculentus; Dosage 80 g/ha) | CYPES pre-emergence efficacy (herbicidal activity) (Cyperus esculentus; Dosage 320 g/ha) | LOLMU pre-emergence efficacy (herbicidal activity) (Lolium multiflorum [14]; Dosage 80 g/ha)
2.66: chromatographic logP (logP (HCOOH))
100%: post-emergence efficacy VIOTR (Viola tricolor [5]; 320 g/ha) | MATIN pre-emergence efficacy (herbicidal activity) (Matricaria inodora [13]; Dosage 80 g/ha) | MATIN pre-emergence efficacy (herbicidal activity) (Matricaria inodora [13]; Dosage 320 g/ha) | LOLMU pre-emergence efficacy (herbicidal activity) (Lolium multiflorum [14]; Dosage 320 g/ha) | ECHCG pre-emergence efficacy (herbicidal activity) (Echinochloa crus-galli [15]; Dosage 320 g/ha) | AVEFA pre-emergence efficacy (herbicidal activity) (Avena fatua [16]; Dosage 320 g/ha) | VIOTR pre-emergence efficacy (herbicidal activity) (Viola tricolor [17]; Dosage 80 g/ha) | VIOTR pre-emergence efficacy (herbicidal activity) (Viola tricolor [17]; Dosage 320 g/ha) | POLCO pre-emergence efficacy (herbicidal activity) (Polygonum convolvulus [18]; Dosage 320 g/ha) | STEME pre-emergence efficacy (herbicidal activity) (Stellaria media [19]; Dosage 80 g/ha) | STEME pre-emergence efficacy (herbicidal activity) (Stellaria media [19]; Dosage 320 g/ha) | ABUTH pre-emergence efficacy (herbicidal activity) (Abutilon theophrasti [20]; Dosage 320 g/ha) | SETVI pre-emergence efficacy (herbicidal activity) (Setaria viridis [21]; Dosage 80 g/ha) | SETVI pre-emergence efficacy (herbicidal activity) (Setaria viridis [21]; Dosage 320 g/ha) | ALOMY pre-emergence efficacy (herbicidal activity) (Alopecurus myosuroides [22]; Dosage 80 g/ha) | ALOMY pre-emergence efficacy (herbicidal activity) (Alopecurus myosuroides [22]; Dosage 320 g/ha) | AMARE pre-emergence efficacy (herbicidal activity) (Amaranthus retroflexus [23]; Dosage 80 g/ha) | AMARE pre-emergence efficacy (herbicidal activity) (Amaranthus retroflexus [23]; Dosage 320 g/ha) | VERPE pre-emergence efficacy (herbicidal activity) (Veronica persica [24]; Dosage 80 g/ha) | VERPE pre-emergence efficacy (herbicidal activity) (Veronica persica [24]; Dosage 320 g/ha)
50%: post-emergence efficacy SETVI (Setaria viridis [9]; 80 g/ha)
90%: post-emergence efficacy PHBPU (Ipomoea purpurea; 320 g/ha) | post-emergence efficacy MATIN (Matricaria inodora [1]; 320 g/ha) | post-emergence efficacy ECHCG (Echinochloa crus-galli [3]; 320 g/ha) | post-emergence efficacy VIOTR (Viola tricolor [5]; 80 g/ha) | post-emergence efficacy POLCO (Polygonum convolvulus [6]; 320 g/ha) | post-emergence efficacy STEME (Stellaria media [7]; 320 g/ha) | post-emergence efficacy ABUTH (Abutilon theophrasti [8]; 320 g/ha) | post-emergence efficacy SETVI (Setaria viridis [9]; 320 g/ha) | post-emergence efficacy ALOMY (Alopecurus myosuroides [10]; 320 g/ha) | post-emergence efficacy AMARE (Amaranthus retroflexus [11]; 320 g/ha) | post-emergence efficacy VERPE (Veronica persica [12]; 320 g/ha) | ECHCG pre-emergence efficacy (herbicidal activity) (Echinochloa crus-galli [15]; Dosage 80 g/ha) | POLCO pre-emergence efficacy (herbicidal activity) (Polygonum convolvulus [18]; Dosage 80 g/ha)

Cc1cc2c(s1)CCCC2Nc1ncc(C#N)c(N)n1 (centres unmarked) [compound 282]
90%: post-emergence efficacy PHBPU (Ipomoea purpurea; 320 g/ha) | post-emergence efficacy MATIN (Matricaria inodora [1]; 80 g/ha) | post-emergence efficacy MATIN (Matricaria inodora [1]; 320 g/ha) | post-emergence efficacy POLCO (Polygonum convolvulus [6]; 80 g/ha) | post-emergence efficacy POLCO (Polygonum convolvulus [6]; 320 g/ha) | post-emergence efficacy ABUTH (Abutilon theophrasti [8]; 80 g/ha) | post-emergence efficacy ABUTH (Abutilon theophrasti [8]; 320 g/ha) | post-emergence efficacy VERPE (Veronica persica [12]; 320 g/ha) | AVEFA pre-emergence efficacy (herbicidal activity) (Avena fatua [16]; Dosage 320 g/ha)
100%: post-emergence efficacy LOLMU (Lolium multiflorum [2]; 80 g/ha) | post-emergence efficacy LOLMU (Lolium multiflorum [2]; 320 g/ha) | post-emergence efficacy ECHCG (Echinochloa crus-galli [3]; 80 g/ha) | post-emergence efficacy ECHCG (Echinochloa crus-galli [3]; 320 g/ha) | post-emergence efficacy AVEFA (Avena fatua [4]; 80 g/ha) | post-emergence efficacy AVEFA (Avena fatua [4]; 320 g/ha) | post-emergence efficacy VIOTR (Viola tricolor [5]; 80 g/ha) | post-emergence efficacy VIOTR (Viola tricolor [5]; 320 g/ha) | post-emergence efficacy STEME (Stellaria media [7]; 80 g/ha) | post-emergence efficacy STEME (Stellaria media [7]; 320 g/ha) | post-emergence efficacy SETVI (Setaria viridis [9]; 80 g/ha) | post-emergence efficacy SETVI (Setaria viridis [9]; 320 g/ha) | post-emergence efficacy ALOMY (Alopecurus myosuroides [10]; 80 g/ha) | post-emergence efficacy ALOMY (Alopecurus myosuroides [10]; 320 g/ha) | post-emergence efficacy AMARE (Amaranthus retroflexus [11]; 80 g/ha) | post-emergence efficacy AMARE (Amaranthus retroflexus [11]; 320 g/ha) | CYPES pre-emergence efficacy (herbicidal activity) (Cyperus esculentus; Dosage 320 g/ha) | MATIN pre-emergence efficacy (herbicidal activity) (Matricaria inodora [13]; Dosage 80 g/ha) | MATIN pre-emergence efficacy (herbicidal activity) (Matricaria inodora [13]; Dosage 320 g/ha) | LOLMU pre-emergence efficacy (herbicidal activity) (Lolium multiflorum [14]; Dosage 80 g/ha) | LOLMU pre-emergence efficacy (herbicidal activity) (Lolium multiflorum [14]; Dosage 320 g/ha) | ECHCG pre-emergence efficacy (herbicidal activity) (Echinochloa crus-galli [15]; Dosage 80 g/ha) | ECHCG pre-emergence efficacy (herbicidal activity) (Echinochloa crus-galli [15]; Dosage 320 g/ha) | VIOTR pre-emergence efficacy (herbicidal activity) (Viola tricolor [17]; Dosage 80 g/ha) | VIOTR pre-emergence efficacy (herbicidal activity) (Viola tricolor [17]; Dosage 320 g/ha) | POLCO pre-emergence efficacy (herbicidal activity) (Polygonum convolvulus [18]; Dosage 80 g/ha) | POLCO pre-emergence efficacy (herbicidal activity) (Polygonum convolvulus [18]; Dosage 320 g/ha) | STEME pre-emergence efficacy (herbicidal activity) (Stellaria media [19]; Dosage 80 g/ha) | STEME pre-emergence efficacy (herbicidal activity) (Stellaria media [19]; Dosage 320 g/ha) | SETVI pre-emergence efficacy (herbicidal activity) (Setaria viridis [21]; Dosage 80 g/ha) | SETVI pre-emergence efficacy (herbicidal activity) (Setaria viridis [21]; Dosage 320 g/ha) | ALOMY pre-emergence efficacy (herbicidal activity) (Alopecurus myosuroides [22]; Dosage 80 g/ha) | ALOMY pre-emergence efficacy (herbicidal activity) (Alopecurus myosuroides [22]; Dosage 320 g/ha) | AMARE pre-emergence efficacy (herbicidal activity) (Amaranthus retroflexus [23]; Dosage 80 g/ha) | AMARE pre-emergence efficacy (herbicidal activity) (Amaranthus retroflexus [23]; Dosage 320 g/ha) | VERPE pre-emergence efficacy (herbicidal activity) (Veronica persica [24]; Dosage 80 g/ha) | VERPE pre-emergence efficacy (herbicidal activity) (Veronica persica [24]; Dosage 320 g/ha)
80%: post-emergence efficacy PHBPU (Ipomoea purpurea; 80 g/ha) | post-emergence efficacy VERPE (Veronica persica [12]; 80 g/ha) | CYPES pre-emergence efficacy (herbicidal activity) (Cyperus esculentus; Dosage 80 g/ha) | AVEFA pre-emergence efficacy (herbicidal activity) (Avena fatua [16]; Dosage 80 g/ha) | ABUTH pre-emergence efficacy (herbicidal activity) (Abutilon theophrasti [20]; Dosage 80 g/ha) | ABUTH pre-emergence efficacy (herbicidal activity) (Abutilon theophrasti [20]; Dosage 320 g/ha)
